The text below walks through data of PubChem BioAssay (NCI).

Test systems include UACC-257 melanoma; NCI-H226 lung; A498 renal; UO-31 renal; NCI-H522 lung; BT-549 breast; MCF7 breast; MOLT-4 leukemia; HCT-116 colon; SNB-19 CNS.
Holding throughout (assay): NCI anticancer screen, dose series, 48 h

Several values for one entry are separate records, joined by “and”; a condition that tells them apart may be missing. Equal entries are not always repeated.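 Exposure lasted 48 hours, with cells grown in 96-well plates and compounds tested at five concentrations. GI50 marks 50% less growth. At the TGI there is no net growth.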

`CC(C)[C@@]12C[C@@H](OC(=O)[C@H]3CO3)[C@@](C)(O1)[C@@H]1CC[C@@H](C)[C@H]1[C@@H]2OC(=O)/C=C/c1ccccc1`: the GI50 in the experiment with UACC-257 melanoma was 19.5 µM; with NCI-H226 lung, 13.8 µM; with A498 renal it was 0.217 µM; in the experiment with UO-31 renal, 0.177 µM; in the experiment with NCI-H522 lung it was 14.3 µM; in the experiment with BT-549 breast, 1.34 µM. For the same molecule, the GI50 in the experiment with MCF7 breast was 9.33 µM; in the experiment with MOLT-4 leukemia it was 18.1 µM; in the experiment on HCT-116 colon, 9.46 µM; with SNB-19 CNS, 21.6 µM. Besides, the TGI was 50.6 µM with UACC-257 melanoma; 32.2 µM in the experiment on NCI-H226 lung; 0.684 µM with A498 renal; 0.416 µM in the experiment on UO-31 renal; 32.7 µM in the experiment with NCI-H522 lung; 13.7 µM with BT-549 breast. The TGI was above 100 µM in the experiment on MCF7 breast, above 100 µM in the experiment with MOLT-4 leukemia, above 100 µM in the experiment with HCT-116 colon and 74.6 µM in the experiment on SNB-19 CNS.
Take `COc1cccc(C2C(C#N)=C(N)Oc3cc(N)ccc32)c1` (stereo not drawn): the GI50 is 0.319 µM in the experiment with UACC-257 melanoma; 5.52 µM in the experiment with NCI-H226 lung; 0.203 µM in the experiment on A498 renal; 0.858 µM with UO-31 renal; 0.242 µM in the experiment with NCI-H522 lung; 0.351 µM with BT-549 breast. The results for the GI50 with MCF7 breast, with MOLT-4 leukemia and in the experiment with HCT-116 colon were 0.314 µM, 0.563 µM and 0.383 µM, respectively. Further, the TGI with UACC-257 melanoma was above 100 µM; with NCI-H226 lung, above 100 µM; in the experiment on UO-31 renal it was above 100 µM; with NCI-H522 lung, 0.771 µM; in the experiment with BT-549 breast, 54.3 µM; in the experiment with MCF7 breast it was above 100 µM. Moreover, the TGI with MOLT-4 leukemia was above 52.3 µM; in the experiment with HCT-116 colon, above 72.2 µM; with SNB-19 CNS, above 100 µM.
Take `CC(=O)N1CC(Nc2ccc(OC(F)(F)F)cc2)=CC1=O`: the GI50 in the experiment with UACC-257 melanoma was above 100 µM; with NCI-H226 lung it was 3.98 µM; with A498 renal it was 1.25 µM; in the experiment on UO-31 renal, 19.4 µM; in the experiment on NCI-H522 lung it was 1.8 µM; in the experiment on BT-549 breast, 4.16 µM. The GI50 was 0.436 µM with MCF7 breast, 4.21 µM in the experiment on MOLT-4 leukemia, 0.472 µM with HCT-116 colon and 3.22 µM with SNB-19 CNS. Moreover, the TGI in the experiment on UACC-257 melanoma was above 100 µM; in the experiment on NCI-H226 lung, 55.9 µM; in the experiment on A498 renal it was 24.2 µM; in the experiment on UO-31 renal, above 100 µM; with NCI-H522 lung it was 5.75 µM; in the experiment on BT-549 breast it was above 100 µM. The TGI in the experiment on MCF7 breast is above 100 µM; in the experiment on MOLT-4 leukemia, above 100 µM; in the experiment with HCT-116 colon, 23.3 µM; in the experiment with SNB-19 CNS, above 100 µM.
For `CC(C)CCOc1ccc(-c2n[nH]c(C(F)(F)F)c2-c2cncc(C#N)c2)c(O)c1`, the GI50 was 1.69 µM with UACC-257 melanoma; 2.57 µM with NCI-H226 lung; 1.75 µM with A498 renal; 1.98 µM with UO-31 renal; 1.8 µM with NCI-H522 lung; 2.57 µM in the experiment with BT-549 breast. The GI50 in the experiment on MCF7 breast is 2.23 µM; in the experiment with MOLT-4 leukemia it was 2.47 µM; in the experiment on HCT-116 colon, 2.61 µM; in the experiment with SNB-19 CNS, 2.98 µM. The TGI in the experiment on UACC-257 melanoma was found to be 5.54 µM; in the experiment with NCI-H226 lung, 9.98 µM; in the experiment with A498 renal, 6.64 µM; in the experiment on UO-31 renal, 7.61 µM; in the experiment with NCI-H522 lung, 10 µM; in the experiment on BT-549 breast, 9.51 µM. Also, the TGI in the experiment on MCF7 breast is above 100 µM; with MOLT-4 leukemia, 12.7 µM; in the experiment with HCT-116 colon, 10.5 µM; in the experiment on SNB-19 CNS, 31.5 µM.
Take `CC1/C=C/C=C/C=C/C=C/C=C/C=C/C=C/C(O[C@@H]2O[C@H](C)[C@H](O)[C@@H](O)[C@@H]2N)CC(O)C(C(=O)O)C(O)CC(=O)CC(O)CC(O)CC(O)CC(=O)CCCC(=O)CC(=O)OC1C(C)CC(C)C(O)CC(=O)c1ccc(N)cc1` (stereo partly drawn): the GI50 was 0.0544 µM and 0.233 µM with UACC-257 melanoma; 0.218 µM with NCI-H226 lung; 0.0512 µM and 0.159 µM in the experiment with A498 renal; 0.0456 µM and 0.159 µM in the experiment on UO-31 renal; 0.0512 µM and 0.161 µM with NCI-H522 lung; 0.213 µM with BT-549 breast. Further, the GI50 with MCF7 breast was 0.0797 µM and 0.422 µM; with MOLT-4 leukemia, 0.0679 µM and 0.172 µM; in the experiment with HCT-116 colon, 0.0581 µM and 0.219 µM; with SNB-19 CNS it was 0.066 µM and 0.279 µM. For the same molecule, the TGI with UACC-257 melanoma is 0.101 µM and 0.612 µM; in the experiment on NCI-H226 lung it was 0.581 µM; in the experiment on A498 renal, 0.0948 µM and 0.32 µM; in the experiment on UO-31 renal, 0.0882 µM and 0.328 µM; in the experiment with NCI-H522 lung, 0.0986 µM and 0.314 µM; with BT-549 breast, 0.444 µM. Moreover, the TGI with MCF7 breast was 0.173 µM and 1.59 µM; in the experiment on MOLT-4 leukemia it was 0.143 µM and 0.402 µM; in the experiment with HCT-116 colon, 0.103 µM and 0.485 µM; in the experiment with SNB-19 CNS, 0.147 µM and 1.09 µM.
As to `Cc1cc2cc3cc(C)c(N(C)C)cc3nc2cc1N(C)C`, the GI50 with UACC-257 melanoma was 3.37 µM; in the experiment with NCI-H226 lung, 3.19 µM; with A498 renal, 4.32 µM; in the experiment on UO-31 renal, 6 µM; in the experiment with NCI-H522 lung, 3.76 µM; in the experiment on BT-549 breast, 4.26 µM. Also, the GI50 was 1.76 µM with MCF7 breast, 3.29 µM in the experiment with MOLT-4 leukemia, 2.12 µM with HCT-116 colon and 3.56 µM in the experiment on SNB-19 CNS. Further, the TGI is 21.8 µM in the experiment on UACC-257 melanoma; 24 µM with NCI-H226 lung; 26.2 µM with A498 renal; above 100 µM in the experiment with UO-31 renal; 30 µM in the experiment on NCI-H522 lung; 15.6 µM in the experiment on BT-549 breast. Moreover, the TGI with MCF7 breast, in the experiment with MOLT-4 leukemia, in the experiment with HCT-116 colon and in the experiment with SNB-19 CNS was above 100 µM in each case.
Turning to `C/C(=N\NC(=O)c1ccncc1)c1ccc2ccccc2c1O`, the TGI in the experiment on UACC-257 melanoma is 24.6 µM; with NCI-H226 lung, 12.1 µM; in the experiment on A498 renal, 53.3 µM; in the experiment with UO-31 renal it was 38.5 µM; in the experiment on NCI-H522 lung, 12.4 µM; with BT-549 breast, above 100 µM. Also, the TGI in the experiment with MCF7 breast was 14 µM; in the experiment on MOLT-4 leukemia, 40.3 µM; in the experiment with HCT-116 colon, 10.5 µM; with SNB-19 CNS it was above 100 µM.
For the molecule `NC(N)=NS(=O)(=O)c1ccc(NCc2c3ccccc3nc3ccccc23)cc1`, the TGI in the experiment with UACC-257 melanoma was above 69.3 µM; in the experiment with NCI-H226 lung, 4.85 µM; with A498 renal, 12 µM; with UO-31 renal, 87.4 µM; in the experiment with NCI-H522 lung, 26.9 µM; with BT-549 breast, 34.3 µM. Further, the TGI with MCF7 breast is 17.5 µM; in the experiment with MOLT-4 leukemia, above 16.5 µM; in the experiment with HCT-116 colon it was 56.2 µM; with SNB-19 CNS, 20.7 µM.
In the case of `CCCCCC(O)C1C(=O)OC(C)C(O)/C=C/C=C/C=C/C=C\C=C(\C)C(O)CC(O)CC(O)CC(O)CC(O)CC(O)CC1O` (stereo not drawn), the GI50 in the experiment with UACC-257 melanoma, with NCI-H226 lung, in the experiment with A498 renal, in the experiment with UO-31 renal, in the experiment with NCI-H522 lung and with BT-549 breast was above 100 µM each time. In addition, the GI50 in the experiment with MCF7 breast, with MOLT-4 leukemia, with HCT-116 colon and in the experiment on SNB-19 CNS was above 100 µM throughout. Besides, the TGI was 50 µM and > 100 µM with UACC-257 melanoma; above 100 µM in the experiment with NCI-H226 lung; above 100 µM with A498 renal; above 100 µM in the experiment with UO-31 renal; above 100 µM in the experiment on NCI-H522 lung; above 100 µM with BT-549 breast. For the same molecule, the TGI in the experiment on MCF7 breast, with MOLT-4 leukemia, in the experiment on HCT-116 colon and in the experiment with SNB-19 CNS was above 100 µM throughout.
Regarding `CC(=O)OC1CC(n2cc(F)c(=O)[nH]c2=O)OC1CO` (stereo not drawn), the TGI with UACC-257 melanoma was above 100 µM; in the experiment with NCI-H226 lung it was above 100 µM; with A498 renal it was 15.5 µM; in the experiment with UO-31 renal, above 92.6 µM; in the experiment on NCI-H522 lung it was 23.9 µM; with BT-549 breast, above 100 µM. The TGI was above 28.3 µM with MCF7 breast, above 100 µM in the experiment with MOLT-4 leukemia, above 100 µM in the experiment on HCT-116 colon and above 100 µM in the experiment on SNB-19 CNS.
With `COc1cc(NCCCCN=C(N)NC(N)=NC(C)C)c2ncccc2c1`, the GI50 is 3.26 µM in the experiment with UACC-257 melanoma; 27 µM in the experiment on NCI-H226 lung; 28.5 µM with A498 renal; 99 µM in the experiment on UO-31 renal; 0.929 µM in the experiment on NCI-H522 lung; 9.6 µM with BT-549 breast. Moreover, the GI50 is 0.0516 µM in the experiment on MCF7 breast, 3.28 µM in the experiment on MOLT-4 leukemia, 2.26 µM in the experiment with HCT-116 colon and 9.86 µM in the experiment with SNB-19 CNS. Further, the TGI in the experiment with UACC-257 melanoma was 10.5 µM; in the experiment on NCI-H226 lung, above 100 µM; with A498 renal, above 100 µM; with UO-31 renal it was above 100 µM; in the experiment on NCI-H522 lung it was 3.93 µM; in the experiment with BT-549 breast, 23.9 µM. Besides, the TGI in the experiment with MCF7 breast turned out to be 0.327 µM; in the experiment on MOLT-4 leukemia, 16.6 µM; in the experiment with HCT-116 colon, 11.1 µM; in the experiment on SNB-19 CNS, 26.3 µM.
Regarding `CCN(CC)c1cc(/C=C/c2ccc(OC)c(OC)c2)nc2cc(F)c(F)cc12`, the GI50 is 15.2 µM in the experiment on UACC-257 melanoma; 2.7 µM with NCI-H226 lung; 1.95 µM with A498 renal; 38.7 µM in the experiment on UO-31 renal; 6.35 µM with NCI-H522 lung; 2.03 µM in the experiment on BT-549 breast. Further, the GI50 was 15.9 µM in the experiment with MCF7 breast, 14.2 µM in the experiment with MOLT-4 leukemia, 5.35 µM in the experiment with HCT-116 colon and 2.34 µM in the experiment on SNB-19 CNS. For the same molecule, the TGI is above 100 µM in the experiment on UACC-257 melanoma; 9.07 µM with NCI-H226 lung; 6.2 µM with A498 renal; above 100 µM in the experiment with UO-31 renal; above 100 µM in the experiment on NCI-H522 lung; 5.28 µM with BT-549 breast. Also, the TGI is above 100 µM in the experiment on MCF7 breast, 33.6 µM in the experiment with MOLT-4 leukemia, 17.5 µM in the experiment on HCT-116 colon and 7.09 µM with SNB-19 CNS.
